Columns and labels:
[1] = Drug metabolism in mouse brain assessed as parent compound remaining at 13.5 MBq, iv measured after 30 mins by HPLC analysis; type: ADME, organism-based; settings: read-out: Activity
[2] = Biodistribution in ICR mouse small intestine at 0.74 MBq, iv measured after 30 mins by automatic gamma counter analysis; type: ADME, organism-based; settings: in vivo, 0.5 h
[3] = Drug uptake in thalamus of ICR mouse brain at 0.5 to 10 uM incubated for 30 mins by Phosphor Imager analysis; type: ADME, tissue-based; settings: 0.5 h, dose 0.5-10 µM
[4] = Biodistribution in ICR mouse lung at 0.74 MBq, iv measured after 2 mins by automatic gamma counter analysis; type: ADME, organism-based; settings: in vivo
[5] = Biodistribution in ICR mouse assessed as decrease in drug accumulation in bone with marrow at 0.74 MBq, iv pretreated with 1-(5-(3-fluorophenyl)-4,5-dihydro-1H-pyrazol-1-yl)-2,2-dimethylpropan-1-one followed by compound administration measured after 10 mins by automatic gamma counter analysis; type: ADME, organism-based; set-up: scale not given: the % may be the effect or the level left; settings: in vivo
[6] = Biodistribution in ICR mouse kidneys at 0.74 MBq, iv measured after 10 mins by automatic gamma counter analysis; type: ADME, organism-based, Kidney; settings: in vivo
[7] = Drug uptake in Sprague-Dawley rat brain assessed as reduction in radioactivity at 10 to 17.6 MBq, iv pretreated with GSK'547 followed by compound administration measured upto 30 mins by PET analysis; type: ADME, organism-based; set-up: scale not given: the % may be the effect or the level left; settings: in vivo, 0.5 h, dose 10-17.6 MBq
[8] = Stability in saline measured for 60 to 150 mins by reversed-phase HPLC analysis; type: physicochemical; settings: buffer; time 60-150 min
[9] = Biodistribution in ICR mouse brain at 0.74 MBq, iv measured after 30 mins by automatic gamma counter analysis; type: ADME, organism-based; settings: in vivo, 0.5 h
[10] = Drug metabolism in mouse plasma assessed as parent compound remaining at 13.5 MBq, iv measured after 30 mins by HPLC analysis; type: ADME, organism-based; settings: read-out: Activity
[11] = Biodistribution in ICR mouse pancreas at 0.74 MBq, iv measured after 2 mins by automatic gamma counter analysis; type: ADME, organism-based; settings: in vivo
[12] = Drug metabolism in mouse liver assessed as parent compound remaining at 13.5 MBq, iv measured after 30 mins by HPLC analysis; type: ADME, organism-based; settings: read-out: Activity
[13] = Drug uptake in brain of Sprague-Dawley rat at 9.9 to 14.8 MBq, iv measured for 5 mins by PET analysis; type: ADME, organism-based; settings: in vivo, dose 9.9-14.8 MBq
[14] = Drug uptake in Sprague-Dawley rat brain assessed as reduction in radioactivity at 10 to 17.6 MBq, iv pretreated with 1-(5-(3-fluorophenyl)-4,5-dihydro-1H-pyrazol-1-yl)-2,2-dimethylpropan-1-one followed by compound administration measured upto 30 mins by PET analysis; type: ADME, organism-based; set-up: scale not given: the % may be the effect or the level left; settings: in vivo, 0.5 h, dose 10-17.6 MBq
[15] = Stability in Balb/c mouse plasma measured for 60 to 150 mins by reversed-phase HPLC analysis; type: ADME; settings: time 60-150 min
[16] = Biodistribution in ICR mouse brain at 0.74 MBq, iv measured after 60 mins by automatic gamma counter analysis; type: ADME, organism-based; settings: in vivo, 1 h
[17] = Biodistribution in ICR mouse kidneys at 0.74 MBq, iv measured after 2 mins by automatic gamma counter analysis; type: ADME, organism-based, Kidney; settings: in vivo
[18] = Biodistribution in ICR mouse spleen at 0.74 MBq, iv measured after 30 mins by automatic gamma counter analysis; type: ADME, organism-based; settings: in vivo, 0.5 h
[19] = Drug uptake in medulla of ICR mouse brain at 0.5 to 10 uM incubated for 30 mins by Phosphor Imager analysis; type: ADME, tissue-based, Medulla of organ; settings: 0.5 h, dose 0.5-10 µM
[20] = Drug uptake in thalamus of ICR mouse brain assessed as reduction in radioactivity incubated for 30 mins in presence of 0.5 uM of GSK'547 by Phosphor Imager analysis; type: ADME, tissue-based; set-up: scale not given: the % may be the effect or the level left; settings: 0.5 h
[21] = Biodistribution in ICR mouse brain at 0.74 MBq, iv measured after 10 mins by automatic gamma counter analysis; type: ADME, organism-based; settings: in vivo
[22] = Drug uptake in Sprague-Dawley rat brain at 10 to 17.6 MBq, iv treated for about 1 min by PET analysis; type: ADME, organism-based; settings: in vivo, dose 10-17.6 MBq
[23] = Biodistribution in ICR mouse pancreas at 0.74 MBq, iv measured after 10 mins by automatic gamma counter analysis; type: ADME, organism-based; settings: in vivo
[24] = Biodistribution in ICR mouse small intestine at 0.74 MBq, iv measured after 10 mins by automatic gamma counter analysis; type: ADME, organism-based; settings: in vivo
[25] = Biodistribution in ICR mouse muscle at 0.74 MBq, iv measured after 2 mins by automatic gamma counter analysis; type: ADME, organism-based, Muscle tissue; settings: in vivo
[26] = Biodistribution in ICR mouse lung at 0.74 MBq, iv measured after 30 mins by automatic gamma counter analysis; type: ADME, organism-based; settings: in vivo, 0.5 h
[27] = Biodistribution in ICR mouse stomach at 0.74 MBq, iv measured after 10 mins by automatic gamma counter analysis; type: ADME, organism-based; settings: in vivo
[28] = Drug uptake in thalamus of ICR mouse brain assessed as reduction in radioactivity at 0.5 to 10 uM incubated for 30 mins in presence of 10 uM of 1-(5-(3-fluorophenyl)-4,5-dihydro-1H-pyrazol-1-yl)-2,2-dimethylpropan-1-one by Phosphor Imager analysis; type: ADME, tissue-based; set-up: scale not given: the % may be the effect or the level left; settings: 0.5 h, dose 0.5-10 µM
[29] = Biodistribution in ICR mouse blood at 0.74 MBq, iv measured after 10 mins by automatic gamma counter analysis; type: ADME, organism-based; settings: in vivo
[30] = Biodistribution in ICR mouse liver at 0.74 MBq, iv measured after 2 mins by automatic gamma counter analysis; type: ADME, organism-based; settings: in vivo
[31] = Drug metabolism in mouse liver assessed as polar radiometabolites accumulation at 13.5 MBq, iv measured after 30 mins by HPLC analysis; type: ADME, organism-based; settings: in vivo, 0.5 h
[32] = Drug uptake in cerebellum of ICR mouse brain at 0.5 to 10 uM incubated for 30 mins by Phosphor Imager analysis; type: ADME, tissue-based; settings: 0.5 h, dose 0.5-10 µM
[33] = Biodistribution in ICR mouse blood at 0.74 MBq, iv measured after 30 mins by automatic gamma counter analysis; type: ADME, organism-based; settings: in vivo, 0.5 h
[34] = Biodistribution in ICR mouse heart at 0.74 MBq, iv measured after 10 mins by automatic gamma counter analysis; type: ADME, organism-based; settings: in vivo
[35] = Biodistribution in ICR mouse liver at 0.74 MBq, iv measured after 60 mins by automatic gamma counter analysis; type: ADME, organism-based; settings: in vivo, 1 h
[36] = Biodistribution in ICR mouse pancreas at 0.74 MBq, iv measured after 60 mins by automatic gamma counter analysis; type: ADME, organism-based; settings: in vivo, 1 h
[37] = Biodistribution in ICR mouse spleen at 0.74 MBq, iv measured after 10 mins by automatic gamma counter analysis; type: ADME, organism-based; settings: in vivo
[38] = Biodistribution in ICR mouse stomach at 0.74 MBq, iv measured after 60 mins by automatic gamma counter analysis; type: ADME, organism-based; settings: in vivo, 1 h
[39] = Biodistribution in ICR mouse muscle at 0.74 MBq, iv measured after 60 mins by automatic gamma counter analysis; type: ADME, organism-based, Muscle tissue; settings: in vivo, 1 h
[40] = Biodistribution in ICR mouse bone at 0.74 MBq, iv measured after 10 mins by automatic gamma counter analysis; type: ADME, organism-based, Bone element; settings: in vivo
[41] = Lipophilicity, logD of compound at pH 7.4 by shake flask method; type: physicochemical; settings: buffer
[42] = Biodistribution in ICR mouse heart at 0.74 MBq, iv measured after 2 mins by automatic gamma counter analysis; type: ADME, organism-based; settings: in vivo
[43] = Biodistribution in ICR mouse heart at 0.74 MBq, iv measured after 60 mins by automatic gamma counter analysis; type: ADME, organism-based; settings: in vivo, 1 h

remaining at 0.5 h [1]: 22.4% | Drug uptake [2]: 22.56 % ID/g | Drug uptake [3]: Active | Drug uptake [4]: 16.41 % ID/g | Activity [5]: 14.8% | Drug uptake [6]: 18.03 % ID/g | Activity [7]: 25.9% | Stability [8]: > 99% | Drug uptake [9]: 0.48 % ID/g | remaining at 0.5 h [10]: 1.2% | Drug uptake [11]: 6.65 % ID/g | remaining at 0.5 h [12]: 1.5% | Drug uptake [13]: Active | Activity [14]: 21.7% | Stability [15]: > 98% | Drug uptake [16]: 0.21 % ID/g | Drug uptake [17]: 10.39 % ID/g | Drug uptake [18]: 0.91 % ID/g | Drug uptake [19]: Active | Activity [20]: ~ 5% | Drug uptake [21]: 1.36 % ID/g | SUVmax [22]: 1.3 | Drug uptake [23]: 3.07 % ID/g | Drug uptake [24]: 12.64 % ID/g | Drug uptake [25]: 3.7 % ID/g | Drug uptake [26]: 2.58 % ID/g | Drug uptake [27]: 0.64 % ID/g | Activity [28]: ~ 26% | Drug uptake [29]: 4.92 % ID/g | Drug uptake [30]: 10.83 % ID/g | Drug metabolism [31]: Metabolite_Detected | Drug uptake [32]: Active | Drug uptake [33]: 2.96 % ID/g | Drug uptake [34]: 3.27 % ID/g | Drug uptake [35]: 2.69 % ID/g | Drug uptake [36]: 1.46 % ID/g | Drug uptake [37]: 1.99 % ID/g | Drug uptake [38]: 0.18 % ID/g | Drug uptake [39]: 0.47 % ID/g | Drug uptake [40]: 4.17 % ID/g | logD [41]: 2.25 | Drug uptake [42]: 6.8 % ID/g | Drug uptake [43]: 0.5 % ID/g
Structure (SMILES): CC(C)(C)C(=O)N1N=CCC1c1cccc([18F])c1 (stereo not drawn)
